Experimental data reported in patent publication US20240262848A1, “HETEROCYCLIC COMPOUNDS, COMPOSITIONS THEREOF, AND METHODS OF TREATMENT THEREWITH” (BeiGene, Ltd., priority 2022, published 2024).

Columns and labels:
[1] = biological target: GST-tagged GDP-loaded KRAS G12V (amino acids 1-169) (Homo sapiens, UniProt P01116, G12V); test: KRAS G12V probe displacement assay (TR-FRET); assay type: binding; details: Table 4; KRAS G12V 2 nM, biotinylated probe 2 2.5 nM
Description: Plates are incubated at 24 °C for 1 hr. […] After 1 hr incubation at 24° C.

[2] = system: pERK1/2(THR202/TYR204) level in SW620 cell line; test: KRAS G12V pERK assay in SW620 cells (HTRF); assay type: cell-based; details: Homo sapiens, SW-620, Table 4, 2 hrs compound treatment
Description: SW620 cell line was used in this study. Cells were maintained in RPMI 1640 supplemented with 10% fetal bovine serum (Thermo Fisher), 50 units/mL penicillin and streptomycin (Thermo Fisher) and kept at 37° C. in a humidified atmosphere of 5% CO2 in air. Cells were reinstated from frozen stocks that were laid down within 30 passages from the original cells purchased. 40000 cells per well were seeded into a 96-well plate and incubated overnight. Cells were treated with a 10-point dilution series. The final compound concentration is from 0 to 10 μM. After 2 hrs compound treatment, cells were lysed, and the pERK1/2(THR202/TYR204) level in the cell lysates was detected by HTRF kit (Cisbio). In brief, a total of 16 μL of cell lysate from each well of a 96-well plate was transferred to a 384-well white assay plate. Lysate from each well was incubated with 2 μL of Eu3+-cryptate (donor) labeled anti-phospho-ERK1/2 and 2 μL of D)2 (acceptor) labeled anti-phospho-ERK1/2 antibodies (Cisbio) overnight in dark at room temperature. When donor and acceptor are in close proximity, excitation of the donor with laser triggers a Fluorescence Resonance Energy Transfer (FRET) towards the acceptor, which in turn fluoresces at 655 nm wavelength. FRET signals were measured using a PHERAstar FSX reader (BMG Labtech). IC50 determination was performed by fitting the curve of percent inhibition versus the log of the inhibitor concentration using Dotmatics.

Chain of GST-tagged GDP-loaded KRAS G12V (amino acids 1-169) (P01116 1-169 isoform P01116-2 G12V): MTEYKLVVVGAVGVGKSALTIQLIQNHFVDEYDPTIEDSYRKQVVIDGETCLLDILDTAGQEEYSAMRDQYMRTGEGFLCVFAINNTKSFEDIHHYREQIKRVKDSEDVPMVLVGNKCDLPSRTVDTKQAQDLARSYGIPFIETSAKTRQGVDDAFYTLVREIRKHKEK

## CC1CCN(C)c2nc(OC[C@@]34CCCN3C[C@H](F)C4)nc3c(F)c(-c4cc(N)cc(Cl)c4C(F)(F)F)nc(c23)O1 (stereo partly drawn) [Example 14, 3-chloro-5-(4-fluoro-2-(((2R,7aS)-2-fluorotetrahydro-1H-pyrrolizin-7a(5H)-yl)methoxy)-8,11-dimethyl-8,9,10,11-tetrahydro-7-oxa-1,3,6,11-tetraazacycloocta[de]naphthalen-5-yl)-4-(trifluoromethyl)aniline]
[1]
  IC50: 13 nM
[2]
  IC50: 414 nM

## CN1c2nc(OC[C@@]34CCCN3C[C@H](F)C4)nc3c(F)c(-c4ccc(F)c5sc(N)c(C#N)c45)c(Cl)c(c23)OCC12COC2 [Example 18, 2-amino-4-(8′-chloro-10′-fluoro-2′-(((2R,7aS)-2-fluorotetrahydro-1H-pyrrolizin-7a(5H)-yl)methoxy)-4′-methyl-4′H, 6′H-spiro[oxetane-3,5′-[1,4]oxazepino[5,6,7-de]quinazolin]-9′-yl)-7-fluorobenzo[b]thiophene-3-carbonitrile]
[1]
  IC50: 0.84 nM
[2]
  IC50: 55 nM

## CN1c2nc(OC[C@@]34CCCN3C[C@H](F)C4)nc3c(F)c(-c4cc(N)cc(Cl)c4C(F)(F)F)nc(c23)O[C@H]2CCCC[C@@H]21 [Example 46, 3-chloro-5-((7aS,11aS)-4-fluoro-2-(((2R,7aS)-2-fluorotetrahydro-1H-pyrrolizin-7a(5H)-yl)methoxy)-12-methyl-7a, 8,10,11,11a, 12-hexahydro-9H-7-oxa-1,3,6,12-tetraazapleiaden-5-yl)-4-(trifluoromethyl)aniline]
[1]
  IC50: 0.48 nM
[2]
  IC50: 37 nM

## CCN1c2nc(OC[C@@]34CCCN3C[C@H](F)C4)nc3c(F)c(-c4cc(N)cc(C)c4C(F)(F)F)nc(c23)OCCC12CC2 [Example 54, 3-(11-ethyl-4-fluoro-2-(((2R,7aS)-2-fluorotetrahydro-1H-pyrrolizin-7a(5H)-yl)methoxy)-8,9-dihydro-11H-7-oxa-1,3,6,11-tetraazaspiro[cycloocta[de]naphthalene-10,1′-cyclopropan]-1(11a), 2,3a, 3a^1(6a), 5-pentaen-5-yl)-5-methyl-4-(trifluoromethyl)aniline]
[1]
  IC50: 1.7 nM
[2]
  IC50: 51 nM

## CN1CCCOc2nc(-c3cc(N)cc(Cl)c3C(F)(F)F)c(F)c3nc(OC[C@@]45CCCN4C[C@H](F)C5)nc1c23 [Example 9, 3-chloro-5-(4-fluoro-2-(((2R,7aS)-2-fluorotetrahydro-1H-pyrrolizin-7a(5H)-yl)methoxy)-11-methyl-8,9,10,11-tetrahydro-7-oxa-1,3,6,11-tetraazacycloocta[de]naphthalen-5-yl)-4-(trifluoromethyl)aniline]
[1]
  IC50: 5.2 nM
[2]
  IC50: 249 nM

## CCN1c2nc(OC[C@@]34CCCN3C[C@H](F)C4)nc3c(F)c(-c4cc(N)cc(C)c4C(F)(F)F)nc(c23)O[C@H]2COCC[C@@H]21 [Example 57, 3-((7aR,11aS)-12-ethyl-4-fluoro-2-(((2R,7aS)-2-fluorotetrahydro-1H-pyrrolizin-7a(5H)-yl)methoxy)-7a, 8,10,11,11a, 12-hexahydro-7,9-dioxa-1,3,6,12-tetraazapleiaden-5-yl)-5-methyl-4-(trifluoromethyl)aniline]
[1]
  IC50: 0.83 nM
[2]
  IC50: 41 nM

## CN1c2nc(OC[C@@]34CCCN3C[C@H](F)C4)nc3c(F)c(-c4cc(N)cc(Cl)c4C(F)(F)F)nc(c23)O[C@@H]2CCC[C@H](O)[C@H]21 (relative stereo) [Example 47, (7aR*,11S*,11aR*)-5-(5-amino-3-chloro-2-(trifluoromethyl)phenyl)-4-fluoro-2-(((2R,7aS)-2-fluorotetrahydro-1H-pyrrolizin-7a(5H)-yl)methoxy)-12-methyl-7a, 8,10,11,11a, 12-hexahydro-9H-7-oxa-1,3,6,12-tetraazapleiaden-11-ol]
[1]
  IC50: 0.61 nM
[2]
  IC50: 73 nM

## CC1COc2nc(-c3cc(N)cc(Cl)c3C(F)(F)F)c(F)c3nc(OC[C@@]45CCCN4C[C@H](F)C5)nc(c23)N(C)C1 (stereo partly drawn) [Example 15, 3-chloro-5-(4-fluoro-2-(((2R,7aS)-2-fluorotetrahydro-1H-pyrrolizin-7a(5H)-yl)methoxy)-9,11-dimethyl-8,9,10,11-tetrahydro-7-oxa-1,3,6,11 tetraazacycloocta[de]naphthalen-5-yl)-4-(trifluoromethyl)aniline]
[1]
  IC50: 8.6 nM
[2]
  IC50: 371 nM

## Nc1cc(Cl)c(C(F)(F)F)c(-c2nc3c4c(nc(OC[C@@]56CCCN5C[C@H](F)C6)nc4c2F)N(C2CC2)CCO3)c1 [Example 8, 3-chloro-5-(10-cyclopropyl-4-fluoro-2-(((2R,7aS)-2-fluorotetrahydro-1H-pyrrolizin-7a(5H)-yl)methoxy)-9,10-dihydro-8H-7-oxa-1,3,6,10-tetraazacyclohepta[de]naphthalen-5-yl)-4-(trifluoromethyl)aniline]
[1]
  IC50: 9.9 nM
[2]
  IC50: 716 nM

## CN1c2nc(OC[C@@]34CCCN3C[C@H](F)C4)nc3c(F)c(-c4cc(N)cc(Cl)c4C(F)(F)F)nc(c23)OC[C@H]2COC[C@@H]21 (single isomer, unassigned) [Example 68 Isomer 1]
[1]
  IC50: 1.8 nM
[2]
  IC50: 51 nM

## CC1CC(C)N(C)c2nc(OC[C@@]34CCCN3C[C@H](F)C4)nc3c(F)c(-c4cc(N)cc(Cl)c4C(F)(F)F)nc(c23)O1 (stereo partly drawn) [Example 21, 3-chloro-5-(4-fluoro-2-(((2R,7aS)-2-fluorotetrahydro-1H-pyrrolizin-7a(5H)-yl)methoxy)-8,10,11-trimethyl-8,9,10,11-tetrahydro-7-oxa-1,3,6,11-tetraazacycloocta[de]naphthalen-5-yl)-4-(trifluoromethyl)aniline]
[1]
  IC50: 1.7 nM
[2]
  IC50: 26 nM

## CCN1c2nc(OC[C@@]34CCCN3C[C@H](F)C4)nc3c(F)c(-c4cc(N)cc(Cl)c4C(F)(F)F)nc(c23)O[C@H]2COCC[C@@H]21 [Example 58, 3-chloro-5-((7aR,11aS)-12-ethyl-4-fluoro-2-(((2R,7aS)-2-fluorotetrahydro-1H-pyrrolizin-7a(5H)-yl)methoxy)-7a, 8,10,11,11a, 12-hexahydro-7,9-dioxa-1,3,6,12-tetraazaplciaden-5-yl)-4-(trifluoromethyl)aniline]
[1]
  IC50: 0.49 nM
[2]
  IC50: 29 nM

## CN1c2nc(OC[C@@]34CCCN3C[C@H](F)C4)nc3c(F)c(-c4cc(N)cc(Cl)c4C(F)(F)F)nc(c23)OCCC12CC(O)C2 (stereo partly drawn) [Example 33, 5′-(5-amino-3-chloro-2-(trifluoromethyl)phenyl)-4′-fluoro-2′-(((2R,7aS)-2-fluorotetrahydro-1H-pyrrolizin-7a(5H)-yl)methoxy)-11′-methyl-8′,9′-dihydro-11′H-7′-oxa-1′,3′,6′,11′-tetraazaspiro[cyclobutane-1,10′-cycloocta[de]naphthalen]-1′(11a′), 2′0.3a′, 3 al′(6a′), 5′-pentaen-3-ol]
[1]
  IC50: 0.39 nM
[2]
  IC50: 17 nM

## CC1CN(C)c2nc(OC[C@@]34CCCN3C[C@H](F)C4)nc3c(F)c(-c4cc(N)cc(Cl)c4C(F)(F)F)nc(c23)O1 (stereo partly drawn) [Example 12, 3-chloro-5-(4-fluoro-2-(((2R,7aS)-2-fluorotetrahydro-1H-pyrrolizin-7a(5H)-yl)methoxy)-8,10-dimethyl-9,10-dihydro-8H-7-oxa-1,3,6,10-tetraazacyclohepta[de]naphthalen-5-yl)-4-(trifluoromethyl)aniline]
[1]
  IC50: 3.2 nM
[2]
  IC50: 152 nM

## CN1c2nc(OC[C@@]34CCCN3C[C@H](F)C4)nc3c(F)c(-c4cc(N)cc(Cl)c4C(F)(F)F)nc(c23)OC[C@H]2CCC[C@H]21 [Example 52, 3-chloro-5-((8aS,11aR)-4-fluoro-2-(((2R,7aS)-2-fluorotetrahydro-1H-pyrrolizin-7a(5H)-yl)methoxy)-12-methyl-8a, 9,10,11,11a, 12-hexahydro-8H-7-oxa-1,3,6,12-tetraazacyclopenta[5,6]cycloocta[1,2,3-de]naphthalen-5-yl)-4-(trifluoromethyl)aniline]
[1]
  IC50: 6.5 nM
[2]
  IC50: 158 nM

## CN1c2nc(OC[C@@]34CCCN3C[C@H](F)C4)nc3c(F)c(-c4ccc(F)c5sc(N)c(C#N)c45)c(Cl)c(c23)OCCC12COC2 [Example 28, 2-amino-4-(9′-chloro-11′-fluoro-2′-(((2R,7aS)-2-fluorotetrahydro-1H-pyrrolizin-7a(5H)-yl)methoxy)-4′-methyl-6′,7′-dihydro-4′H-spiro[oxetane-3,5′-[1,5]oxazocino[4,3,2-de]quinazolin]-10′-yl)-7-fluorobenzo[b]thiophene-3-carbonitrile]
[1]
  IC50: 2.5 nM
[2]
  IC50: 206 nM

## C#Cc1c(F)ccc2cc(O)cc(-c3nc4c5c(nc(OC[C@@]67CCCN6C[C@H](F)C7)nc5c3F)N(C3CC3)CCCO4)c12 [Example 5, 4-(11-cyclopropyl-4-fluoro-2-(((2R,7aS)-2-fluorotetrahydro-1H-pyrrolizin-7a(5H)-yl)methoxy)-8,9,10,11-tetrahydro-7-oxa-1,3,6,11-tetraazacycloocta[de]naphthalen-5-yl)-5-ethynyl-6-fluoronaphthalen-2-ol]
[1]
  IC50: 0.87 nM
[2]
  IC50: 288 nM
